Results on 28 compounds are retold here after article PMC7587356, “High-Throughput Screening for Inhibitors of the SARS-CoV-2 Protease Using a FRET-Biosensor” (Molecules, 2020).

Where a name gives a salt, the structure may show the parent alone. Read-outs that look alike come from different tables or passages of the source.

In the experiment the target is SARS-CoV-2 3CLpro (Severe acute respiratory syndrome coronavirus 2, UniProt P0DTD1). The experiment can be described thus: biochemical. The class given is biochemical. Set-up: Replicate_1 / Replicate_2 / mean / mean (LOPAC_screen_w_protease): unit not given here. The following applies: for inhibition at 5 µM: 4 h.
The mark [1] stands for this setting: sheet LOPAC_screen_w_protease, primary screen with protease, mean of two replicates.
Setting [2] is: sheet LOPAC_screen_w_protease, primary screen with protease, replicate 1.
The mark [3] stands for this setting: sheet LOPAC_screen_w_protease, primary screen with protease, replicate 2.
Where [4] appears, read: sheet LOPAC_screen_w_protease, LOPAC1280 primary screen with protease, 5 µM compound, mean of the two replicates.
The mark [5] stands for this setting: sheet LOPAC_screen_w_protease, LOPAC1280 primary screen with protease, 5 µM compound, replicate 1.
[6] abbreviates: sheet LOPAC_screen_w_protease, LOPAC1280 primary screen with protease, 5 µM compound, replicate 2.
Where [7] appears, read: sheet LOPAC_screen_w_protease, LOPAC1280 primary screen with protease, 5 µM compound, mean of the two replicates, read-out: mean.
Where [8] appears, read: sheet LOPAC_screen_w_protease, LOPAC1280 primary screen with protease, 5 µM compound, replicate 1, read-out: Replicate_1.
Setting [9] is: sheet LOPAC_screen_w_protease, LOPAC1280 primary screen with protease, 5 µM compound, replicate 2, read-out: Replicate_2.
Where [10] appears, read: sheet LOPAC_screen_w_protease, LOPAC1280 at 5 µM, mean of two replicates, read-out: mean.
Where [11] appears, read: sheet LOPAC_screen_w_protease, LOPAC1280 at 5 µM, replicate 1, read-out: Replicate_1.
Setting [12] is: sheet LOPAC_screen_w_protease, LOPAC1280 at 5 µM, replicate 2, read-out: Replicate_2.
The mark [13] stands for this setting: sheet LOPAC_screen_w_protease, LOPAC1280 at 5 µM, mean of two replicates.
[14] abbreviates: sheet LOPAC_screen_w_protease, LOPAC1280 at 5 µM, replicate 1.
Where [15] appears, read: sheet LOPAC_screen_w_protease, LOPAC1280 at 5 µM, replicate 2.
The mark [16] stands for this setting: sheet LOPAC_screen_w_protease, LOPAC1280 primary screen at 5 µM, with protease, replicate 1, read-out: Replicate_1.
The mark [17] stands for this setting: sheet LOPAC_screen_w_protease, LOPAC1280 primary screen at 5 µM, with protease, replicate 2, read-out: Replicate_2.

In turn, `O=S1(=O)N(CCN2CC=C(c3c[nH]c4cc(F)ccc34)CC2)c2cccc3c2N1CCC3` [LY-367,265] came in with a mean under setting [1] of 2.318. Moreover, under setting [2], the Replicate_1 is recorded as 0.8121. In addition, the Replicate_2 under setting [3] was 3.823.

`Cl.O=c1[nH]oc2c1CCNC2` [THIP hydrochloride] returned a mean (sheet LOPAC_screen_w_protease, primary screen with protease, 5 µM, mean of two replicates) of -0.005768. Where the note is “sheet LOPAC_screen_w_protease, primary screen with protease, 5 µM, replicate 1”, the Replicate_1 is -0.552. Where the note is “sheet LOPAC_screen_w_protease, primary screen with protease, 5 µM, replicate 2”, the Replicate_2 amounted to 0.5405.

With `COc1ccccc1N1CCN(CCN(C(=O)c2ccc(F)cc2)c2ccccn2)CC1.Cl.Cl` [p-MPPF dihydrochloride], for the setting “sheet LOPAC_screen_w_protease, primary screen at 5 µM, mean of two replicates”, the “mean (LOPAC screen with protease)” value is 7.242. Further, where the note is “sheet LOPAC_screen_w_protease, primary screen at 5 µM, replicate 1”, the “Replicate_1 (LOPAC screen with protease)” value is listed as 5.881. For the same compound, the “Replicate_2 (LOPAC screen with protease)” value (sheet LOPAC_screen_w_protease, primary screen at 5 µM, replicate 2) worked out at 8.603.

In the case of `CC1=C(C(=O)O)N2C(=O)[C@@H](NC(=O)[C@H](N)C3=CCC=CC3)[C@H]2SC1` [Cephradine], the inhibition at 5 µM (sheet LOPAC_screen_w_protease, primary screen with protease, compound at 5 µM, mean of two replicates, read-out: mean) was 3.13%; the inhibition at 5 µM (sheet LOPAC_screen_w_protease, primary screen with protease, compound at 5 µM, replicate 1, read-out: Replicate_1) was found to be 2.84%; the inhibition at 5 µM (sheet LOPAC_screen_w_protease, primary screen with protease, compound at 5 µM, replicate 2, read-out: Replicate_2) is 3.42%.

As for `CC(C)[N+]1(C)[C@@H]2CC[C@H]1C[C@@H](OC(=O)C(CO)c1ccccc1)C2` (stereo partly drawn) [Ipratropium bromide], the inhibition at 5 µM was 1.02% (LOPAC1280 primary screen with protease, 5 µM compound, replicate 1, read-out: Replicate_1 (LOPAC_screen_w_protease)) and 1.99% (LOPAC1280 primary screen with protease, 5 µM compound, replicate 2, read-out: Replicate_2 (LOPAC_screen_w_protease)). Also, under “LOPAC1280 primary screen with protease, 5 µM compound, mean of two replicates”, the “mean (LOPAC_screen_w_protease)” value is 1.504.

`C[C@](N)(Cc1ccc(O)cc1)C(=O)O` [L-alpha-Methyl-p-tyrosine] gave a mean under setting [4] of 4.979. This compound displayed a Replicate_1 under setting [5] of 5.136. Also, the Replicate_2 under setting [6] is listed as 4.822.

Take `CC(C)(C)c1cc(/C=C(\C#N)C(N)=S)cc(C(C)(C)C)c1O` [Tyrphostin AG 879]: the inhibition at 5 µM runs as follows: under setting [7], 5.5%; under setting [8], 5.93%; under setting [9], 5.07%.

As for `C[C@]12CCC(=O)C=C1CC[C@@H]1[C@@H]2CC[C@@]2(C)[C@H]1CC[C@]2(O)C(=O)CO` [Cortexolone], the inhibition at 5 µM is, setting by setting: under setting [10], 1.01%; under setting [11], 2.17%; under setting [12], -0.141%.

In the case of `O=C(CCNNC(=O)c1ccncc1)NCc1ccccc1` [Nialamide], the inhibition at 5 µM was found to be 3.19% (sheet LOPAC_screen_w_protease, primary screen of LOPAC1280 at 5 µM with protease, mean of the two replicates, read-out: mean); 4.27% (sheet LOPAC_screen_w_protease, primary screen of LOPAC1280 at 5 µM with protease, replicate 1, read-out: Replicate_1); 2.12% (sheet LOPAC_screen_w_protease, primary screen of LOPAC1280 at 5 µM with protease, replicate 2, read-out: Replicate_2).

In turn, `CNc1ncnc2c1ncn2[C@H]1C[C@H](OP(=O)(O)O)[C@@H](COP(=O)(O)O)O1` [MRS 2179] registered a mean under setting [4] of 4.143. The Replicate_1 under setting [5] was found to be 4.368. Under setting [6], this compound registered a Replicate_2 of 3.917.

On to `CCCCCC(O)c1cccc(OCc2ccc3ccccc3n2)c1` (stereo not drawn) [REV 5901], for which the inhibition at 5 µM is, setting by setting: (sheet LOPAC_screen_w_protease, primary screen with protease, 5 µM, mean of two replicates, read-out: mean) 0.337%; (sheet LOPAC_screen_w_protease, primary screen with protease, 5 µM, replicate 1, read-out: Replicate_1) 0.269%; (sheet LOPAC_screen_w_protease, primary screen with protease, 5 µM, replicate 2, read-out: Replicate_2) 0.406%.

The compound `COc1cc(CC(C)N)c(OC)cc1I.Cl` (racemic) [(±)-DOI hydrochloride] yielded a Replicate_1 of 4.323, a Replicate_2 of 2.796 and a mean of 3.56.

For the compound `C[C@H]1c2cccc(O)c2C(=O)C2=C(O)[C@]3(O)C(=O)C(C(N)=O)=C(O)[C@@H](N(C)C)[C@@H]3[C@@H](O)[C@@H]21` [Doxycycline hydrochloride], the inhibition at 5 µM reads like this: under setting [7], 4.21%; under setting [8], 5.78%; under setting [9], 2.65%.

Under setting [4], `CC(C)NCC(O)c1cc(O)cc(O)c1.CC(C)NCC(O)c1cc(O)cc(O)c1.O=S(=O)(O)O` (stereo not drawn) [Metaproterenol hemisulfate] displayed a mean of 4.319. Under setting [5], the Replicate_1 is 2.0521. Moreover, under setting [6], the Replicate_2 was determined as 6.586.

`Cl.NOCC(=O)O.NOCC(=O)O` displayed a mean under setting [13] of 1.195. This compound also registered a Replicate_1 under setting [14] of 1.0596. For the same compound, the Replicate_2 under setting [15] turned out to be 1.33.

Consider `C[N+](C)(C)CC(=O)O` [Betaine hydrochloride], for which the inhibition at 5 µM runs as follows: under setting [10], 1.07%; under setting [11], 0.144%; under setting [12], 1.99%.

Take `Cc1nc2ccccn2c(=O)c1CCN1CCC(C(=O)c2ccc(F)cc2)CC1` [Pirenperone]: the inhibition at 5 µM by setting is: (sheet LOPAC_screen_w_protease, LOPAC1280 primary screen at 5 µM, with protease, mean of the two replicates, read-out: mean) 0.688%; under setting [16], 0.852%; under setting [17], 0.525%.

Turning to `CC1CCN(CC[C@H]2CCCN2S(=O)(=O)c2cccc(O)c2)CC1.Cl` [SB 269970 hydrochloride], the “mean (LOPAC_screen_w_protease)” value (LOPAC1280 primary screen with protease, 5 µM compound, mean of the two replicates) is 2.103. Further, the “Replicate_1 (LOPAC_screen_w_protease)” value (LOPAC1280 primary screen with protease, 5 µM compound, replicate 1) is recorded as 1.356. In addition, under “LOPAC1280 primary screen with protease, 5 µM compound, replicate 2”, the “Replicate_2 (LOPAC_screen_w_protease)” value came out at 2.851.

`Cl.O=c1cc(N2CCOCC2)oc2c(-c3ccccc3)cccc12` [LY-294,002 hydrochloride]: the mean under setting [4] is reported as 5.665. In addition, under setting [5], the Replicate_1 was found to be 6.484. The compound further showed a Replicate_2 under setting [6] of 4.845.

For `O=C(O)/C=C/C(=O)O.O=C(O)/C=C/C(=O)O.O=C(O)/C=C/C(=O)O.O=C1CCCN1CC#CCN1CCCC1.O=C1CCCN1CC#CCN1CCCC1` [Oxotremorine sesquifumarate salt], under setting [4], the mean is 4.476. For the same compound, the Replicate_1 under setting [5] was determined as 3.394. Under setting [6], this compound registered a Replicate_2 of 5.5586.

Turning to `CCCn1c(=O)c2c(ncn2C)n(CCC)c1=O` [1,3-Dipropyl-7-methylxanthine], for the setting “sheet LOPAC_screen_w_protease, primary screen with protease, compound at 5 µM, mean of two replicates”, the mean is on record as 3.018. The same compound had a Replicate_1 (sheet LOPAC_screen_w_protease, primary screen with protease, compound at 5 µM, replicate 1) of 3.463. The Replicate_2 (sheet LOPAC_screen_w_protease, primary screen with protease, compound at 5 µM, replicate 2) is listed as 2.572.

In the case of `CCCCCCCCCCCCCCSCC(=O)O` [Tetradecylthioacetic acid], the inhibition at 5 µM by setting is: (sheet LOPAC_screen_w_protease, LOPAC1280 primary screen at 5 µM, with protease, mean of two replicates, read-out: mean) -1.74%; under setting [16], -1.66%; under setting [17], -1.82%.

`CCCC(=O)NCCc1c2n(c3ccc(OC)cc13)CCCc1ccccc1-2` [K 185] displayed a mean under setting [1] of 2.196. Also, under setting [2], the Replicate_1 came out at 2.886. Besides, the Replicate_2 under setting [3] was determined as 1.507.

Compound `CCCCS(=N)(=O)CCC(N)C(=O)O` (racemic) [DL-Buthionine-[S,R]-sulfoximine] registered a mean (sheet LOPAC_screen_w_protease, LOPAC1280 primary screen at 5 µM, with protease, mean of the two replicates) of 0.7813. The compound further came in with a Replicate_1 (sheet LOPAC_screen_w_protease, LOPAC1280 primary screen at 5 µM, with protease, replicate 1) of 0.9596. Further, the Replicate_2 (sheet LOPAC_screen_w_protease, LOPAC1280 primary screen at 5 µM, with protease, replicate 2) was 0.6029.

With `Cc1ccccc1N1CCN(S(=O)(=O)CC23CCC(CC2NC(=O)C(N)CCS(C)(=O)=O)C3(C)C)CC1.Cl` [L-368,899], under setting [1], the mean came to 2.3895. Moreover, the Replicate_1 under setting [2] is 2.509. The compound further returned a Replicate_2 under setting [3] of 2.27.

Take `C=CC1=C(C)c2cc3[nH]c(cc4nc(cc5[nH]c(cc1n2)c(C)c5CCC(=O)O)C(CCC(=O)O)=C4C)c(C)c3C=C` [Protoporphyrin IX disodium]: the inhibition at 5 µM by setting is: (read-out: Replicate_1) 2.66%; (read-out: Replicate_2) 2.42%; (read-out: mean) 2.54%.

Under setting [13], `O=C1CCC(N2C(=O)c3ccccc3C2=O)C(=O)N1` (racemic) [(±)-Thalidomide] had a mean of 1.21. The Replicate_1 under setting [14] is 0.4169. This compound also displayed a Replicate_2 under setting [15] of 2.003.

With `O=[N+]([O-])c1ccc(CSc2ncnc3c2ncn3[C@@H]2O[C@H](CO)[C@@H](O)[C@H]2O)cc1` [S-(4-Nitrobenzyl)-6-thioinosine], the mean under setting [4] was determined as 4.84. This compound had a Replicate_1 under setting [5] of 5.452. The compound further registered a Replicate_2 under setting [6] of 4.228.
